Here are results for five molecules from patent US6630488B1, “Quinolizinones as integrin inhibitors” (Biochem Pharma, Inc., priority 1998, dated 2003).

For one series, the target named is T1, placental αvβ3 (Homo sapiens, UniProt P05106+P06756).
T1 construct: purified active GP IIb-IIIa (Calbiochem) or olacental αvβ3 at 0.5 μg/ml; from tissue; host or cells: placenta
As to the kind of experiment: Fibrinogen binding to immobilized αvβ3. As to the method:
(§1) Nonbound fibrinogen was removed by five washes with binding buffer. Avidin conjugated to alkaline phosphatase (Sigma), diluted in binding buffer, was added and incubated for two hours at 37° C. The plates were washed five times with binding buffer, and after addition of the substrate PNPP (Pierce), the enzyme activity was measured by the absorbance at 405 nm.

The target of a further series is T2, GP IIb-IIIa (αIIbβ3) (Homo sapiens, UniProt P05106+P08514).
T2 construct: purchased Calbiochem
T2 sequence (P08514 32-887 limits assumed): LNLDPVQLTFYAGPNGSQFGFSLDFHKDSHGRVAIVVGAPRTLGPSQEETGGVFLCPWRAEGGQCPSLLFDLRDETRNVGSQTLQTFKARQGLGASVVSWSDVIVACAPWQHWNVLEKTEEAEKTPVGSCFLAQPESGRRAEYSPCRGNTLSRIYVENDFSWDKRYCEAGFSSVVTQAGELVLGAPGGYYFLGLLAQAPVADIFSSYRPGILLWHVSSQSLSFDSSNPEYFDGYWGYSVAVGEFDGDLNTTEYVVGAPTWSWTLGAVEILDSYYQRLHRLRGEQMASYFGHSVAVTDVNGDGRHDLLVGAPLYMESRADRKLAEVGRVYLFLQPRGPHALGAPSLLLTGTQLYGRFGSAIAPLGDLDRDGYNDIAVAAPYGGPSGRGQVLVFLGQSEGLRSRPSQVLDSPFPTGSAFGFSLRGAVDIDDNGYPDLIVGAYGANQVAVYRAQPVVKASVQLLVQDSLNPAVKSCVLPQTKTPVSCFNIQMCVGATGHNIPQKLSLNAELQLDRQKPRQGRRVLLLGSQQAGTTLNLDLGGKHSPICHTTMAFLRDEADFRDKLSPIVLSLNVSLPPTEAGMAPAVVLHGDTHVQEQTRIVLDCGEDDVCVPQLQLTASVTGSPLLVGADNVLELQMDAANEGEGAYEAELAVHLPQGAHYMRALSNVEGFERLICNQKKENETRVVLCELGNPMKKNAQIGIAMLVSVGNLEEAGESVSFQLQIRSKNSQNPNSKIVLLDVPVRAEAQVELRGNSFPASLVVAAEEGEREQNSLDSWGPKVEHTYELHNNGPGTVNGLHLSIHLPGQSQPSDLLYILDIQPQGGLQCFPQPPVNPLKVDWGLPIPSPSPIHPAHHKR
T2 sequence (P08514 891-1039 partner limits assumed): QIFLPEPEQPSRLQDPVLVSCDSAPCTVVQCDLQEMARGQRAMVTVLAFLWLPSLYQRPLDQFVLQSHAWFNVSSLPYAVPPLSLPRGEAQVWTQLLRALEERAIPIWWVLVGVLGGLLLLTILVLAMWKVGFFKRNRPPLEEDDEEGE
T2 sequence (P05106 27-788): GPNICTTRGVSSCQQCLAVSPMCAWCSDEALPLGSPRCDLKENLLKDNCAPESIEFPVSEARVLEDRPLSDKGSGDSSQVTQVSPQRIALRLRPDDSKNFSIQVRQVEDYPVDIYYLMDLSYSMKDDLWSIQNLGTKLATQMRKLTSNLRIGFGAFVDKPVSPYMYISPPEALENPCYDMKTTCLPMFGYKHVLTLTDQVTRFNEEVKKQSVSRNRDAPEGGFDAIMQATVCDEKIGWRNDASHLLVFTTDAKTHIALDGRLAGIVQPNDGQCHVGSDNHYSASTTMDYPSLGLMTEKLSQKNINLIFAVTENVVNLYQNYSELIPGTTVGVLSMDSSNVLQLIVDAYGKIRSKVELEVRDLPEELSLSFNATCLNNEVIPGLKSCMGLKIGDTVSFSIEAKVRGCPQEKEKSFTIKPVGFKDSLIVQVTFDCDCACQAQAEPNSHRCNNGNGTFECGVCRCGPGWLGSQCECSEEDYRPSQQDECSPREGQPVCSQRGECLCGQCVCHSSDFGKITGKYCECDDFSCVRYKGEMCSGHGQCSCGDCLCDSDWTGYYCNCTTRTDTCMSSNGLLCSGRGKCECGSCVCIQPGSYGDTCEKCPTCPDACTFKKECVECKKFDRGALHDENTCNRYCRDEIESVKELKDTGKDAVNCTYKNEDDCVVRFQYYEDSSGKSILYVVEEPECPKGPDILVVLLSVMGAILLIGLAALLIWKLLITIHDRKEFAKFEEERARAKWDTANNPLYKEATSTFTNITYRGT
Nature of the series: Fibrinogen binding to immobilized GP IIb-IIIa (αIIbβ3). As to the method: as §1

For series [1], the system named is Chick Chorioallantoic Membrane (CAM) capillary formation. Nature of the series: Chick chorioallantoic membrane (CAM) mesh assay. The series is classed as in vivo, chicken. The conditions noted are these: Day 12, 24 hr treatment. As to the method: Fertilized white leghorn chicken eggs (SPAFAS Inc., Norwich, Conn.) were received at day 0 and incubated for 3 days at 37 C with constant humidity. On day 3, eggs were rinsed with 70% ethanol and opened into 100 mm^2 tissue culture coated Petri dishes under aseptic conditions. The embryos were then returned to a humidified 38 C incubator for 7-9 additional days.
Vitrogen (Collagen Biomaterials, Palo Alto, Calif.) at a final concentration of 0.73 mg/ml and Matrigel (Becton Dickinson, Bedford, Mass.) at a final concentration of 10 mg/ml was directly pipetted onto Nylon meshes with 250 μm^2 openings which were cut into 4 mm×4 mm squares and autoclaved. Polymerization of meshes were under aseptic conditions, on bacteriological Petri dishes. The polymerization conditions for each substrate were identical; after mixing with or without […] of VPF/VEGF165 (Peprotech, Rocky Hill, N.J.) and/or compounds of interest, 40 μl were pipetted onto each mesh in a bacteriological Petri dish.
The Petri dish was placed in a humidified 37 C incubator with 5% CO2 for 30 minutes to allow polymerization followed by an incubation at 4 C for 2 hours.
In a tissue culture enclosure, meshes were placed onto the periphery of the CAM of a day 12-14 embryo, excluding areas containing major vessels. The embryos were then returned to the humidified 38 C incubator with 3% CO2 for 24 to 48 additional hours.
Embryos were removed from the incubator and meshes were viewed under a dissecting microscope for gross evaluation. Injection of 400 μl FITC dextran, MW 2,000,000 (Sigma, St. Louis, Mo.) through glass microcapillary tubes by infusion into the umbilical vein was performed at a rate of 200 μl per minute. The FITC dextran was allowed to circulate for 5 minutes and 3.7% formaldehyde in PBS was applied directly on each mesh. The embryos were then incubated at 4 C for 5 minutes and the meshes were dissected off the CAM and fixed in 3.7% formaldehyde for 10 minutes to overnight.
After fixation, meshes were mounted on slides with 90% glycerol in PBS and visualized on an inverted fluorescence microscope. A Nikon Diaphot with a Sony DXC-151A camera attached to the side port was used for capture of images and analysis was with the NIH Image 1.61 software program. For each mesh, 5 random staggered images (approximately 600 μm each) were captured. The areas of high intensity were highlighted and measured. Results are expressed as ability to suppress capillary formation after subtraction from negative control. Values were calculated as i inhibition, considering 100% the capillary density achieved by VPF in the presence of vitrogen alone minus the background levels in the absence of VPF. Negative values indicate angiogenic stimulation above the VPF positive control.

Series [2] is described as follows: Cell proliferation and cytotoxicity MTT assay, IAFp2. The series is classed as cell-based. The conditions noted are these: IAFp2 skin fibroblasts, read-out: Cell proliferation and cytotoxicity IC50, IAFp2 Skin Fibroblast. The procedure: (§2) The wells of microtiter plates were seeded with 2000 cells/well (T24), 2500 cells/well (HT29), 5000 cells/well (HMVEC)or 2500 cells/well (IAFp2) in 100 μL, followed by an overnight culture for cell adhesion. […] Following culture for 72 hours, 3-(4,5-dimethyl-2-thiazolyl)-2,5-diphenyltetrazolium bromide (MTT; Sigma) at 2 mg/ml was added to each well (50 μL/well) and further incubated for 4 hours at 37° C. The medium was flicked out and 200 μL of a 1:1 solution of ethanol:acetone followed by 25 μL of glycine buffer (0.1 M glycine, 0.1M NaCl, pH 10.5) is added and the color measured by the absorbance at 570 nm.
For orientation: Formazan colour is commonly taken as a measure of viable cells.

For another series, the target named is T3, αvβ3 (Homo sapiens, UniProt P05106+P06756).
T3 construct: expressed in transfected cells; host or cells: K562
T3 sequence (P06756 31-889 limits assumed): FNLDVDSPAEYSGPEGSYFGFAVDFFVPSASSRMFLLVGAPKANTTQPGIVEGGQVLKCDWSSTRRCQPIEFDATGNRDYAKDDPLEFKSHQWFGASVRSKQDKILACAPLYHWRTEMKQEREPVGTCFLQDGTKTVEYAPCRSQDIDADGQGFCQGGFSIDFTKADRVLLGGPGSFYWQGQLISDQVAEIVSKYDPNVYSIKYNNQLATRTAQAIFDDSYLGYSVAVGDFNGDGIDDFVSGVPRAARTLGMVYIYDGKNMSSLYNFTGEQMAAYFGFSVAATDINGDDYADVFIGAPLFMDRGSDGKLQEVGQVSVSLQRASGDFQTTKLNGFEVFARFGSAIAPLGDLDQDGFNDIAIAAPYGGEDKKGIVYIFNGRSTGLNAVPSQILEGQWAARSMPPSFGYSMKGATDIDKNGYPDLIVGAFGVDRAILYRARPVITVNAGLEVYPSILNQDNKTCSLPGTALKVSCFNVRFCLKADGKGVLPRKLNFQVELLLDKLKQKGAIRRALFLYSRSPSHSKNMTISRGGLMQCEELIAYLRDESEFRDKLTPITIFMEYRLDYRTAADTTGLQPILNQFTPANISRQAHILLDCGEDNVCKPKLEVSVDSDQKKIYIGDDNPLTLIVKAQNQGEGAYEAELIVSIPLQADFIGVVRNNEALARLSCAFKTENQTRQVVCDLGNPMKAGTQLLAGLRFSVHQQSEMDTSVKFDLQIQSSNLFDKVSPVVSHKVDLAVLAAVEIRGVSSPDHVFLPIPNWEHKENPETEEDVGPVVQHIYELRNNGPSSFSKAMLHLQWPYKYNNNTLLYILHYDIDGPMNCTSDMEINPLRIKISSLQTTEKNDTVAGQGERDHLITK
T3 sequence (P06756 891-1048 partner limits assumed): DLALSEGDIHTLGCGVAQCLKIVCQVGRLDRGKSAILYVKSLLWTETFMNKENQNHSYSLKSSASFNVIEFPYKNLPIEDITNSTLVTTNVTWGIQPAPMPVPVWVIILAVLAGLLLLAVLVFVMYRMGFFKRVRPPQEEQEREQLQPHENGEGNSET
T3 sequence (P05106 27-788): as the sequence (P05106 27-788) above
As to the kind of experiment: Cell attachment assay, K562 transfected with αvβ3. Format: cell-based. As to the method:
(§3) The wells of 96-well plates (Immunolon) were coated, by incubation overnight at 4° C., with 5 μg/ml of vitronectin or osteopontin, 10 μg/ml of fibronectin or 10 mg/ml BSA in PBS. The protein solution was flicked out and the wells were blocked with 10 mg/ml BSA (0.1 ml) for 1-2 hours at 37° C.
(§4) Cells were lifted with trypsin-EDTA and washed two times with Hank's balanced salt solution (Sigma) supplemented with 1 mM MgCl2. Cells (75,000 cells/well) were added to coated plates in triplicate and allowed to attach at 37° C. for 1 hour in the presence or absence of specific antibodies at 5 μ/ml or increasing concentrations of compounds of interest (0.001-10 μM). Nonadherent cells were removed by gentle washing twice with PBS. The adherent cells were solubilized with 1% triton X-100 and detected using a fluorescence plate reader (Perkin Elmer).
(§5) The number of attached cells was calculated based upon starched curves for each cell line used in the experiment. […] The results presented are the average of triplicate samples and representative of several separate assays.

The nature of series [3]: Cell proliferation and cytotoxicity MTT assay, HT29. The series is classed as cell-based. The conditions noted are these: human, HT29 tumor cells. The procedure: as §2
In a further series the target is T4, α5β1 (Homo sapiens, UniProt P05556+P08648).
T4 construct: Cell Line; K562 transfected αvβ3; HT29; K562; endogenous in cells; host or cells: K562
T4 sequence (P08648 42-894 limits assumed): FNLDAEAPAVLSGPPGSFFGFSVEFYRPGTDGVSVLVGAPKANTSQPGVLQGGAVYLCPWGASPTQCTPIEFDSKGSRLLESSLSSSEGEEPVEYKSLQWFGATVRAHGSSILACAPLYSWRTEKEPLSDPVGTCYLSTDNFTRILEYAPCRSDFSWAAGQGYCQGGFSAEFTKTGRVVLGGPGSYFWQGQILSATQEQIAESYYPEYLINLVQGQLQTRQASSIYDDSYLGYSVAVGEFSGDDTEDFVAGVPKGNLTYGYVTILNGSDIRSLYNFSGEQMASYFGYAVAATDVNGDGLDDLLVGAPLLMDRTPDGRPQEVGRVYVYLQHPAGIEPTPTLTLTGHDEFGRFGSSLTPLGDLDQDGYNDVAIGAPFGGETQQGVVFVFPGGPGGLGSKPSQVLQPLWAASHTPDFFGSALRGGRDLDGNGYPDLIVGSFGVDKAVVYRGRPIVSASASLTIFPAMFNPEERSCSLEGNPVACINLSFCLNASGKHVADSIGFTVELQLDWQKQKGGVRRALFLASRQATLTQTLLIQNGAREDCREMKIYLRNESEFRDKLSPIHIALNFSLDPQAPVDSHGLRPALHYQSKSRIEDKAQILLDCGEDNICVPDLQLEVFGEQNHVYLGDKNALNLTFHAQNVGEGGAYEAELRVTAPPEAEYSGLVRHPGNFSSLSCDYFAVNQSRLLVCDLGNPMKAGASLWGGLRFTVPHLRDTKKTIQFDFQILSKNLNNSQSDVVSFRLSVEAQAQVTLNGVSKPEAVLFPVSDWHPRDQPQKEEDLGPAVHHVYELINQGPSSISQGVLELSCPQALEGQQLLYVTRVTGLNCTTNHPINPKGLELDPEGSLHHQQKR
T4 sequence (P08648 895-1049 partner limits assumed): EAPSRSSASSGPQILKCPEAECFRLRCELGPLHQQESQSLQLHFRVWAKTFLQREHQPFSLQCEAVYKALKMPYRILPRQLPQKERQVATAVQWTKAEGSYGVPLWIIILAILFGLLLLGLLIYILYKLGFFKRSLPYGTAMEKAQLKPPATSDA
T4 sequence (P05556 21-798): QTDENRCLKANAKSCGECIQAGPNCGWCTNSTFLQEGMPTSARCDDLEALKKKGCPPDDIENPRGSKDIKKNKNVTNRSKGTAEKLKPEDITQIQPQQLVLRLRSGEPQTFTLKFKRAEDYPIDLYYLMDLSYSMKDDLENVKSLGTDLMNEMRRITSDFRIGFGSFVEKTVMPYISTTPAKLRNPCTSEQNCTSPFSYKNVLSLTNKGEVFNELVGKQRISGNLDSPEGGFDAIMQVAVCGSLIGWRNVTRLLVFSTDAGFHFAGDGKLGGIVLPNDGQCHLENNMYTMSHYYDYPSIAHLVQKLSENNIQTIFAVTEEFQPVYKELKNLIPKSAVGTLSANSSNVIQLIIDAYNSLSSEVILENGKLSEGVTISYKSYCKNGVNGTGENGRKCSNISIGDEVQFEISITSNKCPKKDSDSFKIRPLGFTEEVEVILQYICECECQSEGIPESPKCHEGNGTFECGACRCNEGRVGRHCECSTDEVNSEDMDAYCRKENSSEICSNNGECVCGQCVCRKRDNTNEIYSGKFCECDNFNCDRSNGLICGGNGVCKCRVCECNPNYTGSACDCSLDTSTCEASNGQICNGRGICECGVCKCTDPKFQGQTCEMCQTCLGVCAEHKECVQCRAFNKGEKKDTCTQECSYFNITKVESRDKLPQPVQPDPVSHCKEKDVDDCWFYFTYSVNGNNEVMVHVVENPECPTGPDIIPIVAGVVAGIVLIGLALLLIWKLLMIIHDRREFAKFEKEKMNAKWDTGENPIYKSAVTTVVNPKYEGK
As to the kind of experiment: Cell attachment assay, K562. The series is classed as cell-based. Particulars: ligand fibronectin, read-out: Cell attachment IC50, α5β1, Fibro-nectin. As to the method: The wells of 96-well plates (Immunolon) were coated, by incubation overnight at 4° C., with 5 μg/ml of vitronectin or osteopontin, 10 μg/ml of fibronectin or 10 mg/ml BSA in PBS. The protein solution was flicked out and the wells were blocked with 10 mg/ml BSA (0.1 ml) for 1-2 hours at 37° C. Cells [HT29 (ATOC), HMVEC (Cell Systems), K562 or K562 transfected with αvβ3 (Blystone et al., 1994)] were loaded with a fluorescent marker, 5-chloromethylfluorescein diacetate (Molecular Probes, Eugene, Or) for 1 hour at 37° C., then incubated in fresh medium without the fluorescent marker for 1 hour.
as §4
The number of attached cells was calculated based upon starched curves for each cell line used in the experiment. Non-specific cell attachment (attachment to wells coated with BSA) was always less than 5%. The results presented are the average of triplicate samples and representative of several separate assays.

A short description of series [4]: Cell proliferation and cytotoxicity MTT assay, T24. Particulars: human, T24 tumor cells. The series is classed as cell-based. The procedure:
as §2

Series [5] can be described thus: Cell proliferation and cytotoxicity MTT assay, HMVEC. Format: cell-based. Particulars: human, HMVEC endothelial cells. The procedure:
as §2

The target of a further series is T5, αvβ5 (Homo sapiens, UniProt P06756+P18084).
T5 construct: Cells [HT29 (ATOC), HMVEC (Cell Systems), K562 or K562 transfected with αvβ3; endogenous in cells; host or cells: HT29
As to the kind of experiment: Cell attachment assay, HT29. Format: cell-based. The procedure:
as §3, §4, §5

[6] abbreviates: biotinylated-fibrinogen 10 nM, immobilized placental αvβ3, read-out: IC50 values for the fibrinogen binding assay αvβ3.
[7] abbreviates: biotinylated-fibrinogen 10 nM, immobilized GP IIb-IIIa, read-out: IC50 values for the fibrinogen binding assay αIIbβ3.
Where [8] appears, read: Cell attachment IC50, αvβ3, Osteo-Pontin, ligand osteopontin.
[9] abbreviates: Cell attachment IC50, αvβ3, Vitro-nectin, ligand vitronectin.

Counter-ions that a name gives are not always drawn. Like-named read-outs stand apart in the source and are kept apart here.

T1 sequence (P06756 31-889 limits assumed): as the sequence (P06756 31-889 limits assumed) above
T1 sequence (P06756 891-1048 partner limits assumed): as the sequence (P06756 891-1048 partner limits assumed) above
T1 sequence (P05106 27-788): as the sequence (P05106 27-788) above

For the molecule `NCCCOc1ccc2ccc(C(=O)N[C@H]3CCCC[C@@H]3C(=O)O)c(=O)n2c1.O=C(O)C(F)(F)F` (racemic) [Compound V, (+/−)(trans)-2-{[7-(3-Amino-propoxy)-4-oxo-4H-quinolizine-3-carbonyl]-amino}-cyclohexanecarboxylic Acid Trifluoroacetic Acid Salt], the figures for the IC50 at placental αvβ3 (setting [6]) and on GP IIb-IIIa (αIIbβ3) (setting [7]) were greater than 100 µM and 96 µM, respectively. The “CAM inhibition of capillary formation” value in series [1] (3 μg/mesh, +VPF) was 7%; in series [1] (3 μg/mesh, −VPF) it was 1%; in series [1] (17 μg/mesh, +VPF) it was 9%; in series [1] (17 μg/mesh, −VPF) it was 8%; in [1] (33 μg/mesh, +VPF) it was 20%; in series [1] (33 μg/mesh, −VPF) it was 15%.
Regarding `N=C(N)N1CCN(c2ccn3c(=O)c(C(=O)NC(CC(=O)O)c4ccccc4)ccc3c2)CC1.O=C(O)C(F)(F)F` (racemic) [Compound XL, (+/−)-3-{[8-(4-Carbamimidoyl-piperazin-1-yl)-4-oxo-4H-quinolizine-3-carbonyl]-amino}-3-phenyl-propionic Acid Trifluoroacetic Acid Salt], the IC50 on placental αvβ3 (setting [6]) is 1.9 µM. In addition, the “CAM inhibition of capillary formation” value in series [1] (3 μg/mesh, +VPF) is listed as −2%; in [1] (3 μg/mesh, −VPF) it was 4%; in series [1] (17 μg/mesh, +VPF), 7%; in series [1] (17 μg/mesh, −VPF) it was 10%; in series [1] (33 μg/mesh, +VPF) it was 11%; in [1] (33 μg/mesh, −VPF), 9%.
In the case of `N=C(N)NCCCOc1ccc2cc(C(=O)NC[C@H](NS(=O)(=O)c3ccccc3)C(=O)O)cc(=O)n2c1` [Compound XV, (S)-2-Benzenesulfonylamino-3-{[7-(3-guanidino-propoxy)-4-oxo-4H-quinolizine-2-carbonyl]-amino}-propionic Acid Hydrochloride], the IC50 at 72 h in series [2] is 17 µM; in series [3], greater than 100 µM; in series [4], greater than 100 µM; in [5], 16 ± 4 µM. For the same molecule, the IC50 is 0.015 µM at placental αvβ3; 0.5 ± 0.2 µM at αvβ3 (setting [8]); 2.5 ± 1.5 µM at αvβ3 (setting [9]); greater than 10 µM on α5β1; 0.0053 µM at GP IIb-IIIa (αIIbβ3). Moreover, the “CAM inhibition of capillary formation” value in [1] (3 μg/mesh, +VPF) turned out to be 7%; in series [1] (3 μg/mesh, −VPF), 2%; in series [1] (17 μg/mesh, +VPF) it was 7%; in series [1] (17 μg/mesh, −VPF), 9%; in series [1] (33 μg/mesh, +VPF) it was 10%; in series [1] (33 μg/mesh, −VPF), 8%.
`N=C(N)NCCOc1ccc2cc(C(=O)NC[C@H](NS(=O)(=O)c3ccccc3)C(=O)O)cc(=O)n2c1` [Compound XX, (S)-2-Benzenesulfonylamino-3-{[7-(2-guanidino-ethoxy)-4-oxo-4H-quinolizine-2-carbonyl]-amino}-propionic Acid Hydrochloride]: the IC50 at 72 h in series [2] was 21 µM; in series [3], 100 µM; in [4], greater than 100 µM; in [5], 35 ± 22 µM. In addition, the IC50 on placental αvβ3 is 0.1 µM; against αvβ3 (setting [8]) it was 2.3 ± 2 µM; on αvβ3 (setting [9]), greater than 10 µM; on αvβ5, greater than 10 µM; at α5β1, greater than 10 µM; at GP IIb-IIIa (αIIbβ3), 0.0079 µM.
On to `N=C(N)NCC1CCc2cc(C(=O)NCC(NS(=O)(=O)c3ccccc3)C(=O)O)cc(=O)n2C1` [Compound XXIX, (2S, 7R) and (2S, 7S)-2-Benzenesulfonylamino-3-[(7-guanidinomethyl-4-oxo-6,7,8,9-tetrahydro-4H-quinolizine-2-carbonyl)-amino]-propionic Acid], for which the IC50 at 72 h in series [2] is 23 µM; in series [3], 13 µM; in series [4] it was greater than 100 µM; in series [5] it was 1 ± 0.2 µM. In addition, the IC50 is 0.0042 µM on placental αvβ3 (setting [6]); 0.16 ± 0.01 µM at αvβ3 (ligand osteopontin, read-out: Cell attachment IC50, αvβ3, Osteo-Pontin); 3.2 ± 1.6 µM at αvβ5 (HT29, ligand vitronectin, read-out: Cell attachment IC50, αvβ5, Vitro-Nectin); greater than 10 µM at α5β1; 0.094 µM on GP IIb-IIIa (αIIbβ3) (setting [7]). In addition, the “CAM inhibition of capillary formation” value in [1] (3 μg/mesh, +VPF) is on record as 10%; in series [1] (3 μg/mesh, −VPF), 4%; in series [1] (17 μg/mesh, +VPF), 12%; in series [1] (17 μg/mesh, −VPF) it was 8%; in series [1] (33 μg/mesh, +VPF), 14%; in series [1] (33 μg/mesh, −VPF) it was 13%.
